Results reported in US20210179666A1, “CYCLIC PEPTIDES AND METHODS OF USE THEREOF” (Regents of the University of Minnesota, priority 2019, published 2021).
Several values for one entry are separate records, joined by “and”; a condition that tells them apart may be missing. Equal values may be shown once. Read-outs that look alike come from different tables or passages of the source. Each block holds one compound with its values, some of them ahead of it. Square brackets hold non-standard residues; d marks the D form. Peptide text beside a SMILES is read from it. Gly(N-(CH2)3-guanidino) = N=C(N)NCCCNCC(=O)O; Sar = CNCC(=O)O

Columns and labels:
mMC5R = mMC5R (Mus musculus, UniProt P41149)
Chain of mMC5R (P41149 whole entry): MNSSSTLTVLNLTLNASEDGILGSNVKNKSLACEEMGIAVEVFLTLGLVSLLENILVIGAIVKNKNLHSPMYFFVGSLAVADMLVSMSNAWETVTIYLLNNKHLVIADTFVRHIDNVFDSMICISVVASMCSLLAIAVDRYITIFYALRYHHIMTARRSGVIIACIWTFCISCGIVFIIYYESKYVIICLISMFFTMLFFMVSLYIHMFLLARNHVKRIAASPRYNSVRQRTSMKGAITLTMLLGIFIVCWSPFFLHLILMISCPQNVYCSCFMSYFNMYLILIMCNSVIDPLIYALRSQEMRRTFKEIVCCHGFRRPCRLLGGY

mMC1R = mMC1R (Mus musculus, UniProt Q01727); test: cAMP AlphaScreen bioassay, HEK293 cells stably expressing mMC1R; conditions: for mMC1R percent maximal stimulatory response: @ 100 μM, EC50 not determinable
Chain of mMC1R (Q01727 whole entry): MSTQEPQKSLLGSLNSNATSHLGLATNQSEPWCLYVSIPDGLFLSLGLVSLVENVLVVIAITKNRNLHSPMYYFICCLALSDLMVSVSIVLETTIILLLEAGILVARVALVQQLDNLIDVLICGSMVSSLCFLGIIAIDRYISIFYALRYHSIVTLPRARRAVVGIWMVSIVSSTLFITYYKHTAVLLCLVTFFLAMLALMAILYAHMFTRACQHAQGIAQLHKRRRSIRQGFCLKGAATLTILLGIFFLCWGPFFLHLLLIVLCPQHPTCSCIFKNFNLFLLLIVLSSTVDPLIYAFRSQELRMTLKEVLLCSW

mMC3R = mMC3R (Mus musculus, UniProt P33033); conditions: Example 2; for mMC3R pA2: antagonist, Schild analysis with NDP-MSH, ± SEM, <5.5 = no antagonist potency up to 10,000 nM
Chain of mMC3R (P33033 whole entry): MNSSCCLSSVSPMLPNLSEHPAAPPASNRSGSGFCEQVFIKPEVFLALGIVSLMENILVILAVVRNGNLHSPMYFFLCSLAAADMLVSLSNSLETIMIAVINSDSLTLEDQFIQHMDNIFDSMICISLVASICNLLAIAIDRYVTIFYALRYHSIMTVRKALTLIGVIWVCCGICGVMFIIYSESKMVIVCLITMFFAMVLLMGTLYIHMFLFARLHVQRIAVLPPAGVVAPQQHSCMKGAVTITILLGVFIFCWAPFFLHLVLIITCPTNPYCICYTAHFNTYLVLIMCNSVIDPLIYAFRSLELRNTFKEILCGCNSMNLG

hMC4R = hMC4R (Homo sapiens, UniProt P32245); test: cAMP AlphaScreen bioassay, HEK293 cells stably expressing hMC4R; type: cell-based; parameters: expressed in transfected cells; conditions: hMC4R, cAMP
Chain of hMC4R (P32245 whole entry): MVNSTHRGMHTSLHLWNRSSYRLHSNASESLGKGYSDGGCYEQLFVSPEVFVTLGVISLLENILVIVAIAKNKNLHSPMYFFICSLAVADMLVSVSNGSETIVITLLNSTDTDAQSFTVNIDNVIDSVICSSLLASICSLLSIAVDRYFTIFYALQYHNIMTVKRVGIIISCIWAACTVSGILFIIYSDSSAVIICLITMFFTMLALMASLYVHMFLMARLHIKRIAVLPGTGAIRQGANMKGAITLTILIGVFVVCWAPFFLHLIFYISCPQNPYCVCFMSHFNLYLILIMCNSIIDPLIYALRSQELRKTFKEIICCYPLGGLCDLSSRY

[1] = Example 2, basal to plateau signal, sigmoidal dose-response

Structure (SMILES): C[C@@H]1NC(=O)CN(CCN)C(=O)[C@H](Cc2ccccc2)NC(=O)[C@H](Cc2ccccc2)NC(=O)[C@H](CCCNC(=N)N)NC(=O)[C@@H]2CCCN2C(=O)[C@H]2CCCN2C(=O)[C@H](Cc2ccccc2)NC1=O [MDE9-111c, c[Pro-Arg-Phe-Phe-NDab-Ala-Phe-DPro]]
- mMC5R inverse agonist, percent decrease from basal (mMC5R): −10%
- mMC1R percent maximal stimulatory response (mMC1R; Example 2): 60% @

Structure (SMILES): C[C@@H]1NC(=O)[C@H](CC(N)=O)NC(=O)CN(Cc2ccccc2)C(=O)[C@H](Cc2ccccc2)NC(=O)[C@H](CCCNC(=N)N)NC(=O)[C@@H]2CCCN2C(=O)[C@H]2CCCN2C(=O)[C@H](Cc2ccccc2)NC1=O [MDE9-88c, c[Pro-Arg-Phe-NPhe-Asn-Ala-Phe-DPro]]
- mMC3R pA2 (mMC3R): 6.0 ± 0.1
- mMC5R pharmacology observed (Partial Agonist / Inverse Agonist) (mMC5R; Example 2): Inverse
- mMC5R pA2 (mMC5R; Example 2, antagonist, Schild analysis with NDP-MSH, ± SEM): 6.1 and 6.1 ± 0.1
- mMC5R inverse agonist, percent decrease from basal (mMC5R; [1]): −10%
- mMC1R pharmacology observed (Partial Agonist) (mMC1R; Example 2): Partial

- EC50 (mMC1R; read-out: mMC1R EC50, Example 2 (Table 7, first EC50 column), ± SEM, >100,000 = no agonist activity up to 100 μM): 1 µM
Structure (SMILES): CN1CC(=O)N[C@@H](Cc2ccccc2)C(=O)N2CCC[C@@H]2C(=O)N2CCC[C@H]2C(=O)N[C@@H](CCCNC(=N)N)C(=O)N[C@@H](Cc2ccccc2)C(=O)N[C@@H](Cc2ccccc2)C(=O)N[C@@H](CC(N)=O)C1=O [MDE7-26-4c, c[Pro-Arg-Phe-Phe-Asn-NAla-Phe-DPro]] (cyclo(PRFFN[Sar]F[dP]))

Structure (SMILES): C[C@@H]1NC(=O)[C@H](CN)NC(=O)[C@H](Cc2ccccc2)NC(=O)CN(Cc2ccccc2)C(=O)[C@H](CCCNC(=N)N)NC(=O)[C@@H]2CCCN2C(=O)[C@H]2CCCN2C(=O)[C@H](Cc2ccccc2)NC1=O [MDE9-32c, c[Pro-Arg-NPhe-Phe-Dap-Ala-Phe-DPro]]
- mMC3R pA2 (mMC3R): 6.9 ± 0.3
- mMC5R pharmacology observed (Partial Agonist / Inverse Agonist) (mMC5R; Example 2): Partial
- mMC1R pharmacology observed (Partial Agonist) (mMC1R; Example 2): Partial

Structure (SMILES): C[C@@H]1NC(=O)[C@H](CC(N)=O)NC(=O)[C@H](Cc2ccccc2)NC(=O)[C@H](Cc2ccccc2)NC(=O)CN(CCCNC(=N)N)C(=O)[C@@H]2CCCN2C(=O)[C@H]2CCCN2C(=O)[C@H](Cc2ccccc2)NC1=O [MDE7-26-1c, c[Pro-NArg-Phe-Phe-Asn-Ala-Phe-DPro]] (cyclo(P[Gly(N-(CH2)3-guanidino)]FFNAF[dP]))
- mMC1R pharmacology observed (Partial Agonist) (mMC1R; Example 2): Partial
- mMC1R partial agonist, percentage of activation relative to NDP-MSH (mMC1R; Example 2, maximal signal): 50% NDP-MSH

- Observed Inverse Agonism? (hMC4R): Yes
Structure (SMILES): C[C@@H]1NC(=O)[C@H](CC(N)=O)NC(=O)[C@H](Cc2ccccc2)NC(=O)[C@H](Cc2ccccc2)NC(=O)[C@H](CCCNC(=N)N)NC(=O)[C@@H]2CCCN2C(=O)[C@H]2CCCN2C(=O)[C@H](Cc2ccccc2)NC1=O [MDE 6-82-3c, c[Pro-Arg-Phe-Phe-Asn-Ala-Phe-DPro]]

Structure (SMILES): C[C@@H]1NC(=O)[C@H](CN)NC(=O)CN(Cc2ccccc2)C(=O)[C@H](Cc2ccccc2)NC(=O)[C@H](CCCNC(=N)N)NC(=O)[C@@H]2CCCN2C(=O)[C@H]2CCCN2C(=O)[C@H](Cc2ccccc2)NC1=O [MDE9-93c, c[Pro-Arg-Phe-NPhe-Dap-Ala-Phe-DPro]]
- mMC3R pA2 (mMC3R): 7.1 ± 0.1
- mMC5R pharmacology observed (Partial Agonist / Inverse Agonist) (mMC5R; Example 2): Inverse
- mMC5R inverse agonist, percent decrease from basal (mMC5R; [1]): −10%
- mMC1R pharmacology observed (Partial Agonist) (mMC1R; Example 2): Partial

- mMC3R percent maximal stimulatory response (mMC3R; @ 100 μM): 60% @
- mMC1R percent maximal stimulatory response (mMC1R; Example 2): 85% @
Structure (SMILES): C[C@@H]1NC(=O)[C@H](CC(N)=O)NC(=O)[C@H](Cc2ccccc2)NC(=O)[C@H](Cc2ccccc2)NC(=O)[C@H](CCCNC(=N)N)NC(=O)[C@@H]2CCCN2C(=O)[C@H]2CCCN2C(=O)CN(Cc2ccccc2)C1=O [MDE7-26-5c, c[Pro-Arg-Phe-Phe-Asn-Ala-NPhe-DPro]]

- mMC5R inverse agonist, percent decrease from basal (mMC5R): −10%
Structure (SMILES): C[C@@H]1NC(=O)[C@H](CN)NC(=O)[C@H](Cc2ccccc2)NC(=O)[C@H](Cc2ccccc2)NC(=O)[C@H](CCCNC(=N)N)NC(=O)[C@@H]2CCCN2C(=O)[C@H]2CCCN2C(=O)CN(Cc2ccccc2)C1=O [MDE8-108-7c, c[Pro-Arg-Phe-Phe-Dap-Ala-NPhe-DPro]]
